Assay results taken from US8012956B2, “Tropane compounds” (Exelixis, Inc., priority 2007, dated 2011).

Each compound was assayed against HSP90 (Homo sapiens, UniProt P07900) (assay: HSP90 inhibition (HSP90 IC50)).
Type: biochemical

Q: Which IC50 does the source give for CC[C@H](C)NC(=O)c1ccc(N2C3CCC2CC(NC(=O)c2cccc(OC)c2C)C3)nc1 (stereo partly drawn) [6-[3-endo-({[2-methyl-3-(methyloxy)phenyl]carbonyl}amino)-8-azabicyclo[3.2.1]oct-8-yl]-N-[(1S)-1-methylpropyl]pyridine-3-carboxamide] here?
A: 2000 to 10000 nM

Q: COc1cccc(C(=O)NC2CC3CCC(C2)N3c2ccc(C(=O)N[C@@H](C)c3ccccc3)cn2)c1C (stereo partly drawn) [6-[3-endo-({[2-methyl-3-(methyloxy)phenyl]carbonyl}amino)-8-azabicyclo[3.2.1]oct-8-yl]-N-[(1S)-1-phenylethyl]pyridine-3-carboxamide] was tested. Which IC50 did it give?
A: < 500 nM

Q: Which IC50 does the source give for CC[C@H](NC(=O)c1ccc(N2C3CCC2CC(NC(=O)c2cccc(OC)c2C)C3)nc1)c1ccccc1 (stereo partly drawn) [6-[3-endo-({[2-methyl-3-(methyloxy)phenyl]carbonyl}amino)-8-azabicyclo[3.2.1]oct-8-yl]-N-[(1S)-1-phenylpropyl]pyridine-3-carboxamide] here?
A: 500 to 999 nM

Q: For COc1cccc(C(=O)N[C@H]2C[C@H]3CC[C@@H](C2)N3c2ccc(C(=O)NCc3c(F)ccc(F)c3F)cn2)c1C [6-[3-endo-({[2-methyl-3-(methyloxy)phenyl]carbonyl}amino)-8-azabicyclo[3.2.1]oct-8-yl]-N-[(2,3,6-trifluorophenyl)methyl]pyridine-3-carboxamide], which IC50 is on record?
A: 500 to 999 nM

Q: Which IC50 does the source give for COc1cccc(C(=O)N[C@H]2C[C@H]3CC[C@@H](C2)N3c2ccc(C(=O)NCc3cc(F)c(F)cc3F)cn2)c1C [6-[3-endo-({[2-methyl-3-(methyloxy)phenyl]carbonyl}amino)-8-azabicyclo[3.2.1]oct-8-yl]-N-[(2,4,5-trifluorophenyl)methyl]pyridine-3-carboxamide] here?
A: 500 to 999 nM

Q: For COc1cccc(C(=O)N[C@H]2C[C@H]3CC[C@@H](C2)N3c2ccc(C(=O)NCc3c(F)cc(F)cc3F)cn2)c1C [6-[3-endo-({[2-methyl-3-(methyloxy)phenyl]carbonyl}amino)-8-azabicyclo[3.2.1]oct-8-yl]-N-[(2,4,6-trifluorophenyl)methyl]pyridine-3-carboxamide], which IC50 is on record?
A: < 500 nM

Q: Which IC50 does the source give for COc1cccc(C(=O)N[C@H]2C[C@H]3CC[C@@H](C2)N3c2ccc(C(=O)NCc3ccccc3C)cn2)c1C [6-[3-endo-({[2-methyl-3-(methyloxy)phenyl]carbonyl}amino)-8-azabicyclo[3.2.1]oct-8-yl]-N-[(2-methylphenyl)methyl]pyridine-3-carboxamide] here?
A: < 500 nM

Q: How did the IC50 turn out when COc1cccc(C(=O)N[C@H]2C[C@H]3CC[C@@H](C2)N3c2ccc(C(=O)NCc3cccc(C)c3)cn2)c1C [6-[3-endo-({[2-methyl-3-(methyloxy)phenyl]carbonyl}amino)-8-azabicyclo[3.2.1]oct-8-yl]-N-[(3-methylphenyl)methyl]pyridine-3-carboxamide] was run?
A: 2000 to 10000 nM

Q: With COc1cccc(C(=O)NC2CC3CCC(C2)N3c2ccc(C(=O)N[C@@H]3CCN(Cc4ccccc4)C3)cn2)c1C (stereo partly drawn) [6-[3-endo-({[2-methyl-3-(methyloxy)phenyl]carbonyl}amino)-8-azabicyclo[3.2.1]oct-8-yl]-N-[(3R)-1-(phenylmethyl)pyrrolidin-3-yl]pyridine-3-carboxamide] as the compound, how does the IC50 read?
A: < 500 nM

Q: Which IC50 does the source give for COc1cccc(C(=O)NC2CC3CCC(C2)N3c2ccc(C(=O)N[C@@H]3CCN(C)C3)cn2)c1C (stereo partly drawn) [6-[3-endo-({[2-methyl-3-(methyloxy)phenyl]carbonyl}amino)-8-azabicyclo[3.2.1]oct-8-yl]-N-[(3R)-1-methylpyrrolidin-3-yl]pyridine-3-carboxamide] here?
A: < 500 nM

Q: With COc1cccc(C(=O)NC2CC3CCC(C2)N3c2ccc(C(=O)N[C@@H]3CCNC3)cn2)c1C (stereo partly drawn) [6-[3-endo-({[2-methyl-3-(methyloxy)phenyl]carbonyl}amino)-8-azabicyclo[3.2.1]oct-8-yl]-N-[(3R)-pyrrolidin-3-yl]pyridine-3-carboxamide] as the compound, how does the IC50 read?
A: 500 to 999 nM

Q: With COc1cccc(C(=O)NC2CC3CCC(C2)N3c2ccc(C(=O)N[C@H]3CCN(Cc4ccccc4)C3)cn2)c1C (stereo partly drawn) [6-[3-endo-({[2-methyl-3-(methyloxy)phenyl]carbonyl}amino)-8-azabicyclo[3.2.1]oct-8-yl]-N-[(3S)-1-(phenylmethyl)pyrrolidin-3-yl]pyridine-3-carboxamide] as the compound, how does the IC50 read?
A: 500 to 999 nM

Q: For COc1cccc(C(=O)NC2CC3CCC(C2)N3c2ccc(C(=O)N[C@H]3CCN(C)C3)cn2)c1C (stereo partly drawn) [6-[3-endo-({[2-methyl-3-(methyloxy)phenyl]carbonyl}amino)-8-azabicyclo[3.2.1]oct-8-yl]-N-[(3S)-1-methylpyrrolidin-3-yl]pyridine-3-carboxamide], which IC50 is on record?
A: 1000 to 2000 nM

Q: How did the IC50 turn out when COc1cccc(C(=O)N[C@H]2C[C@H]3CC[C@@H](C2)N3c2ccc(C(=O)NCc3ccc(N4CCOCC4)cc3)cn2)c1C [6-[3-endo-({[2-methyl-3-(methyloxy)phenyl]carbonyl}amino)-8-azabicyclo[3.2.1]oct-8-yl]-N-[(4-morpholin-4-ylphenyl)methyl]pyridine-3-carboxamide] was run?
A: < 500 nM

Q: How did the IC50 turn out when COc1cccc(C(=O)N[C@H]2C[C@H]3CC[C@@H](C2)N3c2ccc(C(=O)NCc3ccc(N4CCNCC4)cc3)cn2)c1C [6-[3-endo-({[2-methyl-3-(methyloxy)phenyl]carbonyl}amino)-8-azabicyclo[3.2.1]oct-8-yl]-N-[(4-piperazin-1-ylphenyl)methyl]pyridine-3-carboxamide] was run?
A: < 500 nM

Q: For COc1cccc(C(=O)N[C@H]2C[C@H]3CC[C@@H](C2)N3c2ccc(C(=O)NCc3ccc(N4CCCC4)cc3)cn2)c1C [6-[3-endo-({[2-methyl-3-(methyloxy)phenyl]carbonyl}amino)-8-azabicyclo[3.2.1]oct-8-yl]-N-[(4-pyrrolidin-1-ylphenyl)methyl]pyridine-3-carboxamide], which IC50 is on record?
A: 500 to 999 nM

Q: Which IC50 does the source give for COc1cccc(C(=O)N[C@H]2C[C@H]3CC[C@@H](C2)N3c2ccc(C(=O)NCc3cnc(C)cn3)cn2)c1C [6-[3-endo-({[2-methyl-3-(methyloxy)phenyl]carbonyl}amino)-8-azabicyclo[3.2.1]oct-8-yl]-N-[(5-methylpyrazin-2-yl)methyl]pyridine-3-carboxamide] here?
A: < 500 nM

Q: With COc1cccc(C(=O)NC2CC3CCC(C2)N3c2ccc(C(=O)NC3CCCNC3)cn2)c1C (stereo not drawn) [6-[3-endo-({[2-methyl-3-(methyloxy)phenyl]carbonyl}amino)-8-azabicyclo[3.2.1]oct-8-yl]-N-piperidin-3-ylpyridine-3-carboxamide] as the compound, how does the IC50 read?
A: 500 to 999 nM

Q: Which IC50 does the source give for COc1cccc(C(=O)N[C@H]2C[C@H]3CC[C@@H](C2)N3c2ccc(C(=O)NC3CCNCC3)cn2)c1C [6-[3-endo-({[2-methyl-3-(methyloxy)phenyl]carbonyl}amino)-8-azabicyclo[3.2.1]oct-8-yl]-N-piperidin-4-ylpyridine-3-carboxamide] here?
A: < 500 nM

Q: CCCNC(=O)c1ccc(N2[C@@H]3CC[C@H]2C[C@@H](NC(=O)c2cccc(OC)c2C)C3)nc1 [6-[3-endo-({[2-methyl-3-(methyloxy)phenyl]carbonyl}amino)-8-azabicyclo[3.2.1]oct-8-yl]-N-propylpyridine-3-carboxamide] was tested. Which IC50 did it give?
A: 1000 to 2000 nM

Q: COc1ccc([C@@H](C)NC(=O)c2ccc(N3C4CCC3CC(NC(=O)c3cccc(OC)c3C)C4)nc2)cc1 (stereo partly drawn) [6-[3-endo-({[2-methyl-3-(methyloxy)phenyl]carbonyl}amino)-8-azabicyclo[3.2.1]oct-8-yl]-N-{(1R)-1-[4-(methyloxy)phenyl]ethyl}pyridine-3-carboxamide] was tested. Which IC50 did it give?
A: 2000 to 10000 nM

Q: With COc1cccc([C@H](C)NC(=O)c2ccc(N3C4CCC3CC(NC(=O)c3cccc(OC)c3C)C4)nc2)c1 (stereo partly drawn) [6-[3-endo-({[2-methyl-3-(methyloxy)phenyl]carbonyl}amino)-8-azabicyclo[3.2.1]oct-8-yl]-N-{(1S)-1-[3-(methyloxy)phenyl]ethyl}pyridine-3-carboxamide] as the compound, how does the IC50 read?
A: < 500 nM

Q: How did the IC50 turn out when COc1cccc(C(=O)NC2CC3CCC(C2)N3c2ccc(C(=O)N[C@@H](C)c3ccc(N4CCN(C)CC4)cc3)cn2)c1C (stereo partly drawn) [6-[3-endo-({[2-methyl-3-(methyloxy)phenyl]carbonyl}amino)-8-azabicyclo[3.2.1]oct-8-yl]-N-{(1S)-1-[4-(4-methylpiperazin-1-yl)phenyl]ethyl}pyridine-3-carboxamide] was run?
A: < 500 nM

Q: For COc1cccc(C(=O)NC2CC3CCC(C2)N3c2ccc(C(=O)N[C@H]3CCC[C@@H]3OCc3ccccc3)cn2)c1C (stereo partly drawn) [6-[3-endo-({[2-methyl-3-(methyloxy)phenyl]carbonyl}amino)-8-azabicyclo[3.2.1]oct-8-yl]-N-{(1S,2S)-2-[(phenylmethyl)oxy]cyclopentyl}pyridine-3-carboxamide], which IC50 is on record?
A: 2000 to 10000 nM

Q: How did the IC50 turn out when COc1cccc(C(=O)N[C@H]2C[C@H]3CC[C@@H](C2)N3c2ccc(C(=O)NCc3ccccc3N3CCN(C)CC3)cn2)c1C [6-[3-endo-({[2-methyl-3-(methyloxy)phenyl]carbonyl}amino)-8-azabicyclo[3.2.1]oct-8-yl]-N-{[2-(4-methylpiperazin-1-yl)phenyl]methyl}pyridine-3-carboxamide] was run?
A: 1000 to 2000 nM

Q: Which IC50 does the source give for COc1ccccc1CNC(=O)c1ccc(N2[C@@H]3CC[C@H]2C[C@@H](NC(=O)c2cccc(OC)c2C)C3)nc1 [6-[3-endo-({[2-methyl-3-(methyloxy)phenyl]carbonyl}amino)-8-azabicyclo[3.2.1]oct-8-yl]-N-{[2-(methyloxy)phenyl]methyl}pyridine-3-carboxamide] here?
A: 1000 to 2000 nM

Q: COc1cccc(C(=O)N[C@H]2C[C@H]3CC[C@@H](C2)N3c2ccc(C(=O)NCc3cc(OC)c(OC)c(OC)c3)cn2)c1C [6-[3-endo-({[2-methyl-3-(methyloxy)phenyl]carbonyl}amino)-8-azabicyclo[3.2.1]oct-8-yl]-N-{[3,4,5-tris(methyloxy)phenyl]methyl}pyridine-3-carboxamide] was tested. Which IC50 did it give?
A: 1000 to 2000 nM

Q: Which IC50 does the source give for COc1cccc(CNC(=O)c2ccc(N3[C@@H]4CC[C@H]3C[C@@H](NC(=O)c3cccc(OC)c3C)C4)nc2)c1 [6-[3-endo-({[2-methyl-3-(methyloxy)phenyl]carbonyl}amino)-8-azabicyclo[3.2.1]oct-8-yl]-N-{[3-(methyloxy)phenyl]methyl}pyridine-3-carboxamide] here?
A: 2000 to 10000 nM

Q: Which IC50 does the source give for COc1cccc(C(=O)N[C@H]2C[C@H]3CC[C@@H](C2)N3c2ccc(C(=O)NCc3ccc(C4CCN(C)CC4)cc3)cn2)c1C [6-[3-endo-({[2-methyl-3-(methyloxy)phenyl]carbonyl}amino)-8-azabicyclo[3.2.1]oct-8-yl]-N-{[4-(1-methylpiperidin-4-yl)phenyl]methyl}pyridine-3-carboxamide] here?
A: < 500 nM
